Source: paper PMC10353061 (ACS Pharmacology & Translational Science, 2023)

Assays:
[1] = system: Wnt/β-catenin signaling pathway; assay: Topflash/Fopflash luciferase report assay in SW480 cells; format: cell-based; conditions: 30 μM
Text: (§1) We synthesized derivatives 5–10 bearing 5-membered and 6-membered heterocyclic rings at the position 3′ or 4′ of the B phenyl ring. […] SW480 cells show higher Wnt activation compared to HCT116 cells.[28] […] In SW480 cells, compounds 5–10 were in the 1.75%(10)–7.32%(7) range of residual luciferase activity, except 6(28.46%), compared to 3(21.61%); in HCT116 cells, compounds 5–10 were in the 0.37%(7)–5.88%(5) range, compared to 3 (18.75%) (Table 1 and Figure 5).
(§2) Figure 5 Residual luciferase activity (%) by compounds 5–10 and reference compound 3 in SW480 cells (left panel) and HCT116 cells (right panel). Data are represented as the mean ± SD of three independent experiments, each performed in triplicate.
(§3) Briefly, the Topflash plasmid (Beyotime, Zhejiang, China) contains 7 TCF/LEF binding sites, while the Fopflash plasmid (Beyotime, Zhejiang, China) contains 6 mutated TCF/LEF binding sites, which are located in the upstream of the luciferase reporter. SW480 and HCT116 cell lines were cultured in 90% DMEM (HyClone, #SH30243.01) plus 10% fetal bovine serum (Gibco, #10270) and plasmocin (mpp-39-03, InvivoGen), respectively. The Topflash/Fopflash vector and plasmid pTK-renilla together were co-transfected to the cells. […] The Dual-Glo luciferase assay kit (Promega, #E1910) was used to measure the luminescence intensity (Figure 2).

[2] = system: Wnt/β-catenin signaling pathway; assay: Topflash/Fopflash luciferase report assay in HCT116 cells; format: cell-based, human; conditions: 30 μM
Text: as §1, §2, §3

Fgf20 and Sal4 = assay: Wnt-target gene mRNA levels (qPCR) in LiCl-treated HCT116 cells; format: cell-based, human; conditions: HCT116, LiCl 50 mM, 24 h, 10 μM
Method: To this end, HCT116 cells were treated for 24 h with 50 mM LiCl and increasing concentrations (10–50–100 μM) of the two compounds.
HCT116 was treated with LiCl (50 mM) and 10 μM compound 9 or 10 for 24 h. Fgf20, Sall4 (Wnt-target genes) mRNA levels were measured by qPCR and normalized to the expression of β-actin mRNA. Results are expressed as fold change relative to the control sample and represent the mean ± SD of three independent experiments, each performed in triplicate. *p < 0.05, **p < 0.01, ***p < 0.001 as determined by ANOVA.

HCC1806 cells = assay: Cell proliferation by live-cell imaging (IncuCyte), HCC1806 TNBC cells; format: cell-based; conditions: 40 μM, 72 h
Method: (§4) As TNBC is a highly heterogeneous subgroup, including breast cancers with different molecular and phenotypic traits,[37] effects of compounds 5–10 on cell proliferation were also tested in additional TNBC cell lines, i.e., HCC1806 and HCC1937. As inhibitors of HCC1806 TNBC cells, compounds 5–10 were evaluated in parallel with compounds 3, ICG-001, and iCRT3 (Figures 10 and S12–S19, Supporting Information); as inhibitors of the HCC1937 TNBC cells, 5–10 were compared with 3 and iCRT3 (Figures 10, S20, and S21). Effects on cell proliferation were evaluated as above for the MDA-MB-231 TNBC cells at the latest time point of observation of 72 h.
(§5) Figure 10 Inhibition of MDA-MB-231, HCC1806, and HCC1937 TNBC cell growth by compounds 5–10 and reference compounds 3, […], and iCRT3 at 40 μM. Cell growth inhibition was quantified using the IncuCyte cell-by-cell analysis software, by comparison with the growth of DMSO-treated cells at 72 h, set at 100% (mean ± SD, n = 3, one-way ANOVA, **p ≤ 0.01, ****p ≤ 0.0001).
(§6) Cell proliferation of breast cancer cell lines upon continuous treatment with select compounds was evaluated by the real-time quantitative live-cell imaging system. MDA-MB-231 (1500 cells/well), HCC1806 (2000 cells/well), and HCC1937 (3000 cells/well) were seeded in 96-well plates, treated with increasing doses of selected compounds and images (5 images/well) were acquired every 8 h for 3 days at 10× magnification in an IncuCyte SX5 live-content imaging system (Essen Bioscience) at 37 °C with 5% CO2. Images were analyzed using IncuCyte cell-by-cell analysis software to detect and quantify live cells (phase-contrast). The number of cells at each time point was quantified using IncuCyte cell-by-cell analysis software, and cell growth was evaluated as the normalized ratio between counted cells at each time point normalized to those counted at time 0. Graph drawing and statistical analyses were performed in GraphPad Prism according to the statistical tests described in the figure legends.

HCC1937 cells = assay: Cell proliferation by live-cell imaging (IncuCyte), HCC1937 TNBC cells; format: cell-based; conditions: 40 μM, 72 h
Method: as §4, §5, §6

O=S(=O)(Nc1ccc(-c2ccccn2)cc1)c1ccc(Br)cc1 [Compound 9, 4-Bromo-N-(4-(pyridin-2-yl)phenyl)benzenesulfonamide]
% Luciferase Activity SW480 (residual) [1]: 8.75%
% Luciferase Activity HCT116 (residual) [2]: 4.33%
mRNA levels of Wnt-target genes Fgf20 and Sal4 (Fgf20 and Sal4): strongly inhibited
effect on HCC1806 cell growth (HCC1806 cells): less effective
effect on HCC1937 cell growth (HCC1937 cells): less effective
